The pKi is the negative decadic logarithm of the Ki, by convention in mol/L. Read a low pKi as a high Ki. What is called pKb is the Kb on a negative log10 scale, so that one unit is a factor of ten. Broadly, the IC50 is the concentration at which inhibition is half-maximal. For orientation: Kb means the affinity of an antagonist, worked out from how it opposes an agonist. Broadly, the bioavailability is dose-corrected exposure relative to a reference, in per cent. A low value points to little systemic uptake.

Data set [1] addresses T1, Histamine H3 receptor (Homo sapiens, UniProt Q9Y5N1). The data set is described as follows: Displacement of [3H]NAMH from human full length histamine H3 receptor expressed in rat C6 cells. The class given is cell-based. (Loss of bound radioactivity is the signal in a displacement assay; it reports binding, not function.)
The target of data set [2] is T2, Histamine H3 receptor (Rattus norvegicus, UniProt Q9QYN8). The experiment in a line: Displacement of [3H]NAMH from histamine H3 receptor in rat cortex.
Data set [3] is described as follows: Displacement of [3H]LY278584 from 5HT1 receptor in rat frontal cortex. The class given is tissue-based.
The nature of data set [4]: Displacement of [3H]LY278584 from 5HT2 receptor in rat frontal cortex. The format is tissue-based.
Data set [5] is described as follows: Displacement of [3H]LY278584 from 5HT3 receptor in rat frontal cortex. The class given is tissue-based.
Data set [6] has as its target Histamine H3 receptor (Rattus norvegicus) (UniProt Q9QYN8). The data set is described as follows: Antagonist activity at rat full length histamine H3 receptor expressed in rat C6 cells assessed as inhibition of [35S]gammaGTP binding relative to control. The format is cell-based.
The target in data set [7] is T1, Histamine H3 receptor. The experiment in a line: Antagonist activity at human full length histamine H3 receptor expressed in HEK293 cells assessed as inhibition of (R)-alpha-methylhistamine-induced intracellular calcium release by FLIPR. The format is functional, cell-based.
In data set [8] the target is Histamine H3 receptor (Rattus norvegicus) (UniProt Q9QYN8). The data set is described as follows: Antagonist activity at rat full length histamine H3 receptor assessed as inhibition of (R)-alpha-methylhistamine-induced intracellular calcium release by FLIPR. The class given is functional, cell-based. On the technique in general: Calcium flux is commonly read through the fluorescence of an indicator in the cells.

The target of data set [9] is T1, Histamine H3 receptor. The note with it: HEK293.
Data set [10] addresses T1, Histamine H3 receptor. Particulars: C6.
Data set [11] has as its target Histamine H3 receptor (Cavia porcellus) (UniProt Q9JI35). The note with it: Ileum.
In data set [12] the target is Histamine H3 receptor (Rattus norvegicus) (UniProt Q9QYN8). The data set is described as follows: Antagonist activity at rat full length histamine H3 receptor expressed in HEK cells assessed as inhibition of forskolin-induced cAMP accumulation by SPA. Particulars: HEK293. Background: cAMP levels reflect the balance of adenylyl cyclase and phosphodiesterase activity.
Data set [13] concerns the target T2, Histamine H3 receptor. The experiment in a line: Displacement of [3H]NAMH from rat full length histamine H3 receptor expressed in rat C6 cells. The format is cell-based. Particulars: read-out: Ki.
The target of data set [14] is Histamine H3 receptor (Cavia porcellus, UniProt Q9JI35). The experiment in a line: Antagonist activity at histamine H3 receptor in guinea pig ileum assessed as inhibition of (R)-alpha-methylhistamine-induced response.
Data set [15] is described as follows: Oral bioavailability in rat. The format is ADME, organism-based. The note with it: in vivo.

T2 sequence (Q9QYN8 whole entry): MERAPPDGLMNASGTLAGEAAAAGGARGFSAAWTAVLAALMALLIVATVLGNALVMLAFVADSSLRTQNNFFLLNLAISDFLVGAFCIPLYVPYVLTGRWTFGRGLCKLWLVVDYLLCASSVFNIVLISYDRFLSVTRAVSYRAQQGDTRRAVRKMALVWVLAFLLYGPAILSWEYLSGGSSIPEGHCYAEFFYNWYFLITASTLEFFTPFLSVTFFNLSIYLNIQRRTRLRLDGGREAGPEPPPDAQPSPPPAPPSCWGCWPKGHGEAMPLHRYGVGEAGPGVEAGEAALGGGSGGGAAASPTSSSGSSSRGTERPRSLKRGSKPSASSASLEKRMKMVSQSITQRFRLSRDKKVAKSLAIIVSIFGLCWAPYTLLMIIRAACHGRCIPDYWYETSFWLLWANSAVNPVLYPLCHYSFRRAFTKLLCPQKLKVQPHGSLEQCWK
Sequence of Histamine H3 receptor (Rattus norvegicus) (Q9QYN8 whole entry): as above
T1 sequence (Q9Y5N1 whole entry): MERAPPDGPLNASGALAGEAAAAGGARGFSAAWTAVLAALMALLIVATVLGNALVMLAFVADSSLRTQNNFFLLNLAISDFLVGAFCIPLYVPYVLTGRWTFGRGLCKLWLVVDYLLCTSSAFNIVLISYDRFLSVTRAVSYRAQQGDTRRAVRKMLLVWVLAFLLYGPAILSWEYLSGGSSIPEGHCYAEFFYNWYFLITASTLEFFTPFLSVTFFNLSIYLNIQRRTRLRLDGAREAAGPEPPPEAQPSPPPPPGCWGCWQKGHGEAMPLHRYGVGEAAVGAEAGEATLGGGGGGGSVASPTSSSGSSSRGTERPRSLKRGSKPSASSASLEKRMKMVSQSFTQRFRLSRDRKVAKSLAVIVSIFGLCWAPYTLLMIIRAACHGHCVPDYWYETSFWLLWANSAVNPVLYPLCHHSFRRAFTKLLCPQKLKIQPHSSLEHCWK
Sequence of Histamine H3 receptor (Cavia porcellus, UniProt Q9JI35) (Q9JI35 whole entry): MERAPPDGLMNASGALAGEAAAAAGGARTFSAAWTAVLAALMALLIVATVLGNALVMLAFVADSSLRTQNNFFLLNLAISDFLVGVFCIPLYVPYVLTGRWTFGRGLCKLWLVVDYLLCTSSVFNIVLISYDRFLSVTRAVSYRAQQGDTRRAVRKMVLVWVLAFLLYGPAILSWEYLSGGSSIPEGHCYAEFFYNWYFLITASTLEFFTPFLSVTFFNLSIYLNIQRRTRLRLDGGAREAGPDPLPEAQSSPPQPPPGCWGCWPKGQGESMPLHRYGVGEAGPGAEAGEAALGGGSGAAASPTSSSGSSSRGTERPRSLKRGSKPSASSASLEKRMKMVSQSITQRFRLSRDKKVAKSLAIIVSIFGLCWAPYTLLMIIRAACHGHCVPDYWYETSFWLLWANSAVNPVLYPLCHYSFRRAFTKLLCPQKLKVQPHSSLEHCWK
Sequence of Histamine H3 receptor (Cavia porcellus) (Q9JI35 whole entry): as above

For `CC(=O)N[C@@H](CC(C)C)C(=O)N(C)[C@H]1CC[C@@]2(C)C(=CC[C@H]3[C@@H]4CC[C@@H]5[C@H](C)N(C)C[C@@]54CC[C@@H]32)C1`, the Ki on Histamine H3 receptor [1] is 1.62 nM; at Histamine H3 receptor [2] (read-out: Ki), 6.76 nM.
On the same counts, the results for `CCS(=O)(=O)N(C)[C@H]1CC[C@@]2(C)C(=CC[C@H]3[C@@H]4CC[C@@H]5[C@H](C)N(C)C[C@@]54CC[C@@H]32)C1` are 23.4 nM and 141 nM.
Regarding `O=C(c1ccc(OCCCc2c[nH]cn2)cc1)C1CC1` [CIPROXIFAN], the pKi in data set [3] came to 4.78; in [4] it was 4.73; in [5] it was 6.52. Further, the pKb is 8.78 in [6]; 6.84 at Histamine H3 receptor [7]; 9.42 in data set [8]; 7.07 at Histamine H3 receptor [9]; 6.59 on Histamine H3 receptor [10]; 8.12 in data set [11]. Further, the pKb in data set [12] came to 9.2.
For the molecule `C[C@H]1[C@H]2CC[C@H]3[C@@H]4CC=C5C[C@@H](N(C)S(=O)(=O)N(C)C)CC[C@]5(C)[C@H]4CC[C@]23CN1C`, the Ki on Histamine H3 receptor [1] came to 30.9 nM; at Histamine H3 receptor [2] (read-out: Ki) it was 240 nM.
On to `NCCC(=O)NCCc1c[nH]cn1` [CARCININE], for which the Ki at Histamine H3 receptor [13] is 294 nM.
`C[C@H]1[C@H]2CC[C@H]3[C@@H]4CC=C5C[C@@H](N(C)C(=O)c6ccc(C#N)cc6)CC[C@]5(C)[C@H]4CC[C@]23CN1C`: the Ki at Histamine H3 receptor [1] was 39.8 nM; at Histamine H3 receptor [2] (read-out: Ki), 195 nM.
Turning to `O=C(c1ccc(OCCCc2cnc[nH]2)cc1)C1CC1` [CIPROXIFAN], the Ki at Histamine H3 receptor [2] (read-out: pKi (converted)) is 0.631 nM.
Consider `C[C@H]1[C@H]2CC[C@H]3[C@@H]4CC=C5C[C@@H](N(C)S(=O)(=O)c6ccc(C#N)cc6)CC[C@]5(C)[C@H]4CC[C@]23CN1C`, for which the figures for the Ki on Histamine H3 receptor [1] and on Histamine H3 receptor [2] (read-out: Ki) were 19 nM and 138 nM, respectively.
On the same counts, the results for `CC(=O)N(C)[C@H]1CC[C@@]2(C)C(=CC[C@H]3[C@@H]4CC[C@@H]5[C@H](C)N(C)C[C@@]54CC[C@@H]32)C1` are 110 nM and 257 nM.
For the molecule `CC(=O)N[C@@H](Cc1ccccc1)C(=O)N(C)[C@H]1CC[C@@]2(C)C(=CC[C@H]3[C@@H]4CC[C@@H]5[C@H](C)N(C)C[C@@]54CC[C@@H]32)C1`, the Ki amounted to 1.15 nM on Histamine H3 receptor [1] and 2.29 nM at Histamine H3 receptor [2] (read-out: Ki).
As for `COc1ccc(C/C(=N\O)C(=O)NCCc2c[nH]cn2)cc1Br` [VERONGAMINE], at Histamine H3 receptor [14], the half-inhibitory concentration (IC50) amounted to 830 nM.
For the molecule `C[C@H]1[C@H]2CC[C@H]3[C@@H]4CC=C5C[C@@H](N(C)C(=O)OCC(Cl)(Cl)Cl)CC[C@]5(C)[C@H]4CC[C@]23CN1C`, the figures for the Ki at Histamine H3 receptor [1] and at Histamine H3 receptor [13] were 19.7 nM and 7.91 nM, respectively.
On to `CN(C)CCCOc1c(Br)cc(CCN(C)C)cc1Br` [APLYSAMINE], for which, at Histamine H3 receptor [14], the IC50 stood at 500 nM.
On to `C[C@H]1[C@H]2CC[C@H]3[C@@H]4CC=C5C[C@@H](N(C)S(=O)(=O)c6ccccc6)CC[C@]5(C)[C@H]4CC[C@]23CN1C`, for which the Ki was found to be 7.76 nM on Histamine H3 receptor [1] and 61.7 nM at Histamine H3 receptor [2] (read-out: Ki).
The like results for `C[C@H]1[C@H]2CC[C@H]3[C@@H]4CC=C5C[C@@H](N(C)C(=O)C6CC6)CC[C@]5(C)[C@H]4CC[C@]23CN1C` were, in that order, 60.3 nM and 380 nM.
The like results for `CC[C@H](C)[C@H](N)C(=O)N(C)[C@H]1CC[C@@]2(C)C(=CC[C@H]3[C@@H]4CC[C@@H]5[C@H](C)N(C)C[C@@]54CC[C@@H]32)C1` were, in that order, 0.22 nM and 0.49 nM.
On to `CN1C[C@]23CC[C@H]4[C@@H](CC=C5C[C@@H](N(C)C)CC[C@@]54C)[C@@H]2CC[C@@H]3C1=O`, for which the Ki at Histamine H3 receptor [1] stood at 543 nM; at Histamine H3 receptor [13], 1000 nM.
As to `S=C(NC1CCCCC1)N1CCC(c2cnc[nH]2)CC1` [THIOPERAMIDE], at Histamine H3 receptor [2] (read-out: pKi (converted)), the Ki was 7.08 nM. The figures for the pKi in [3], in data set [4] and in data set [5] were 4.95, 5.25 and 5.64, respectively. Moreover, the pKb in [6] was found to be 8.13; on Histamine H3 receptor [7] it was 6.82; in [8], 9.11; on Histamine H3 receptor [9] it was 7.39; at Histamine H3 receptor [10], 6.1; in data set [12], 7.61. On Histamine H3 receptor [14], the Kb was 3.63 nM.
As for `C[C@H]1[C@H]2CC[C@H]3[C@@H]4CC=C5C[C@@H](N(C)C(=O)c6ccncc6)CC[C@]5(C)[C@H]4CC[C@]23CN1C`, the Ki at Histamine H3 receptor [1] turned out to be 16.2 nM; on Histamine H3 receptor [2] (read-out: Ki), 155 nM.
On the same counts, the results for `COC(=O)N(C)[C@H]1CC[C@@]2(C)C(=CC[C@H]3[C@@H]4CC[C@@H]5[C@H](C)N(C)C[C@@]54CC[C@@H]32)C1` are 60.3 nM and 257 nM.
The like results for `C[C@H]1[C@H]2CC[C@H]3[C@@H]4CC=C5C[C@@H](N(C)C(=O)c6ccccc6)CC[C@]5(C)[C@H]4CC[C@]23CN1C` were, in that order, 12.3 nM and 38 nM.
The like results for `C[C@H]1[C@H]2CC[C@H]3[C@@H]4CC=C5C[C@@H](N(C)C(=O)N(C)C)CC[C@]5(C)[C@H]4CC[C@]23CN1C` were, in that order, 50.1 nM and 295 nM.
In the case of `C[C@H]1[C@H]2CC[C@H]3[C@@H]4CC=C5C[C@@H](N(C)c6ccc(C#N)cc6)CC[C@]5(C)[C@H]4CC[C@]23CN1C`, the Ki came to 1.66 nM at Histamine H3 receptor [1] and 24 nM at Histamine H3 receptor [2] (read-out: Ki).
The like results for `CC[C@@H](C)[C@@H](N)C(=O)N(C)[C@H]1CC[C@@]2(C)C(=CC[C@H]3[C@@H]4CC[C@@H]5[C@H](C)N(C)C[C@@]54CC[C@@H]32)C1` were, in that order, 0.37 nM and 2.88 nM.
`C[C@H]1[C@H]2CC[C@H]3[C@@H]4CC=C5C[C@@H](N(C)C(=O)Cc6cccs6)CC[C@]5(C)[C@H]4CC[C@]23CN1C`: the Ki amounted to 3.31 nM at Histamine H3 receptor [1] and 11.2 nM on Histamine H3 receptor [2] (read-out: Ki). The bioavailability in [15] is 4.5%.

Values taken from ChEMBL document CHEMBL1157348, “The alkaloid conessine and analogues as potent histamine H3 receptor antagonists” (J Med Chem, 2008).
